Data published in ChEMBL document CHEMBL5380842, “Discovery of a Potent and Selective CCR8 Small Molecular Antagonist IPG7236 for the Treatment of Cancer” (J Med Chem, 2023).
In brackets after ≈: the same amount, converted by molar mass.

Experiments:
[1] = Oral bioavailability in Cynomolgous monkey at 50 mg/kg; type: ADME, organism-based, Macaca fascicularis; settings: cynomolgus monkey, in vivo
[2] = Volume of distribution at steady state in Beagle dog at 3 mg/kg, iv; type: ADME, organism-based, Canis lupus familiaris; settings: in vivo, read-out: Vdss
[3] = Apparent permeability of compound across basal to apical side in human Caco2 cells at 10 uM incubated for 120 mins by LC-MS/MS analysis; settings: Caco-2
[4] = Clearance in Cynomolgous monkey at 1 mg/kg, iv; type: ADME, organism-based, Macaca fascicularis; settings: cynomolgus monkey, in vivo
[5] = Clearance in ICR mouse at 1 mg/kg, iv; type: ADME, organism-based; settings: in vivo
MDA-MB-231 [6] = test: Antitumor activity against human MDA-MB-231 cells xenografted in humanized NCG mouse assessed as decrease in tumor-infiltrating Treg cells administered intragastrically twice everyday; type: functional, cell-based; settings: dose 2-50 mg/kg, route ig
[7] = Oral bioavailability in Beagle dog at 10 mg/kg; type: ADME, organism-based, Canis lupus familiaris; settings: in vivo
[8] = Stability in mouse liver microsomes assessed as half life; type: ADME, Microsome
[9] = AUClast in ICR mouse at 50 mg/kg, po; type: ADME, organism-based; set-up: dose 50 mg/kg, route po; settings: in vivo
[10] = Volume of distribution at steady state in Sprague-Dawley rat at 1 mg/kg, iv; type: ADME, organism-based; settings: in vivo, read-out: Vdss
[11] = AUClast in Beagle dog at 3 mg/kg, iv; type: ADME, organism-based, Canis lupus familiaris; set-up: dose 3 mg/kg, route iv; settings: in vivo
[12] = Clearance in Sprague-Dawley rat at 1 mg/kg, iv; type: ADME, organism-based; settings: in vivo
MDA-MB-231 [13] = test: Antitumor activity against human MDA-MB-231 cells xenografted in humanized NCG mouse assessed as tumor growth inhibition at 10 mg/kg, po bid relative to control; type: functional; settings: read-out: TGI
[14] = Cytotoxicity against human primary hepatocytes; type: toxicity, cell-based, Hepatocyte
[15] = Tmax in Beagle dog at 10 mg/kg, po; type: ADME, organism-based, Canis lupus familiaris; settings: in vivo
[16] = AUClast in Sprague-Dawley rat at 1 mg/kg, iv; type: ADME, organism-based; set-up: dose 1 mg/kg, route iv; settings: in vivo
[17] = AUClast in Beagle dog at 10 mg/kg, po; type: ADME, organism-based, Canis lupus familiaris; set-up: dose 10 mg/kg, route po; settings: in vivo
[18] = AUClast in Cynomolgous monkey at 50 mg/kg, po; type: ADME, organism-based, Macaca fascicularis; set-up: dose 50 mg/kg, route po; settings: cynomolgus monkey, in vivo
[19] = Stability in dog liver microsomes assessed as half life; type: ADME, Canis lupus familiaris, Microsome
[20] = AUClast in Sprague-Dawley rat at 50 mg/kg, po; type: ADME, organism-based; set-up: dose 50 mg/kg, route po; settings: in vivo
Cytochrome P450 3A4 [21] = biological target: T1, Cytochrome P450 3A4 (Homo sapiens, UniProt P08684); test: Inhibition of CYP3A4-M (unknown origin); type: ADME
MDA-MB-231 [22] = test: Synergistic antitumor activity against human MDA-MB-231 cells xenografted in humanized NCG mouse assessed as tumor growth inhibition at 10 mg/kg, po bid in presence of PD-1 antibody relative to control; type: functional; settings: read-out: TGI
[23] = Stability in mouse hepatocytes assessed as half life; type: ADME, cell-based, Hepatocyte
Cytochrome P450 2D6 = Cytochrome P450 2D6 (Homo sapiens, UniProt P10635); test: Inhibition of CYP2D6 (unknown origin); type: ADME
[24] = Toxicity in humanized NCG mouse xenografted with human MDA-MB-231 cells administered intragastrically twice everyday; settings: in vivo, po
[25] = Tmax in Sprague-Dawley rat at 50 mg/kg, po; type: ADME, organism-based; settings: in vivo
[26] = Stability in human hepatocytes assessed as half life; type: ADME, cell-based, Hepatocyte
[27] = Oral bioavailability in ICR mouse at 50 mg/kg; type: ADME, organism-based; settings: in vivo
MDA-MB-231 [28] = test: Antitumor activity against human MDA-MB-231 cells xenografted in humanized NCG mouse assessed as tumor growth inhibition at 50 mg/kg, IG bid measured after 22 days relative to control; type: functional; settings: MDA-MB-231, po, 528 h, time 22 day, read-out: TGI
[29] = Solubility of compound in PBS at pH 7.4 incubated for 2 hrs by LC-MS/MS analysis; type: physicochemical
[30] = Apparent permeability of compound across apical to basal side in human Caco2 cells at 10 uM incubated for 120 mins by LC-MS/MS analysis; settings: Caco-2
[31] = AUClast in ICR mouse at 1 mg/kg, iv; type: ADME, organism-based; set-up: dose 1 mg/kg, route iv; settings: in vivo
MDA-MB-231 [32] = test: Antitumor activity against human MDA-MB-231 cells xenografted in humanized NCG mouse assessed as tumor growth inhibition at 10 mg/kg, IG bid measured after 22 days relative to control; type: functional; settings: MDA-MB-231, po, 528 h, time 22 day, read-out: TGI
[33] = Volume of distribution at steady state in ICR mouse at 1 mg/kg, iv; type: ADME, organism-based; settings: in vivo, read-out: Vdss
[34] = AUClast in Cynomolgous monkey at 1 mg/kg, iv; type: ADME, organism-based, Macaca fascicularis; set-up: dose 1 mg/kg, route iv; settings: cynomolgus monkey, in vivo
[35] = biological target: Voltage-gated inwardly rectifying potassium channel KCNH2 (Homo sapiens, UniProt Q12809); test: Inhibition of hERG; type: toxicity
[36] = Volume of distribution at steady state in Cynomolgous monkey at 1 mg/kg, iv; type: ADME, organism-based, Macaca fascicularis; settings: cynomolgus monkey, in vivo, read-out: Vdss
Cytochrome P450 3A4 [37] = biological target: T1, Cytochrome P450 3A4; test: Inhibition of CYP3A4-T (unknown origin); type: ADME
Cytochrome P450 1A2 = biological target: T2, Cytochrome P450 1A2 (Homo sapiens, UniProt P05177); test: Inhibition of CYP1A2 (unknown origin); type: ADME
T2 sequence (P05177 whole entry): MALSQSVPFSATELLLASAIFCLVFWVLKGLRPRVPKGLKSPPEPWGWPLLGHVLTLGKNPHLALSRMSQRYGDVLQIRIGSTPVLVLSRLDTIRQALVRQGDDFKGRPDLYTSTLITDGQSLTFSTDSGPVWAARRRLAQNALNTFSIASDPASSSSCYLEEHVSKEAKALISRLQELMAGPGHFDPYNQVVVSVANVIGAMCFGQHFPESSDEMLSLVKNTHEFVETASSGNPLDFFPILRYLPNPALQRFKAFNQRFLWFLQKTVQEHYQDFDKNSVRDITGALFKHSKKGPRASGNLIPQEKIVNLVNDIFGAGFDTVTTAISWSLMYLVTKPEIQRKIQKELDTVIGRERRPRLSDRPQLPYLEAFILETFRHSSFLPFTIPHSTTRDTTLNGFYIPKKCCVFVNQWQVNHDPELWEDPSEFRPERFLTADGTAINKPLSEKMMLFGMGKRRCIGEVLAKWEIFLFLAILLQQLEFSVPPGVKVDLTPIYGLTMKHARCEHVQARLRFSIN

[38] = Stability in rat liver microsomes assessed as half life; type: ADME, Microsome
[39] = Unbound fraction in mouse plasma; type: ADME, cell-free

T1 sequence (P08684 whole entry): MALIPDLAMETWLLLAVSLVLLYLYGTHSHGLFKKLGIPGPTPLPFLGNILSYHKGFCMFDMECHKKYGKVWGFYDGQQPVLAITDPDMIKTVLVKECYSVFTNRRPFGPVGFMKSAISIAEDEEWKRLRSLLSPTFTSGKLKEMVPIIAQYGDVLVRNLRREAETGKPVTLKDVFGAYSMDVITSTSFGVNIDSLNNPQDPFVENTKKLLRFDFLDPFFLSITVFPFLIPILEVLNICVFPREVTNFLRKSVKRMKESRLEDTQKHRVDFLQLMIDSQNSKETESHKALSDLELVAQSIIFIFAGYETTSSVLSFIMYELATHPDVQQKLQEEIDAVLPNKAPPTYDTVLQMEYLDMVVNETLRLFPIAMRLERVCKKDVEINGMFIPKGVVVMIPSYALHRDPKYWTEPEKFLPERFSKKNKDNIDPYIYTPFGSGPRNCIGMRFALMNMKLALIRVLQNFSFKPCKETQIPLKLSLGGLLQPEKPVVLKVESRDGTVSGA
Chain of Voltage-gated inwardly rectifying potassium channel KCNH2 (Q12809 whole entry): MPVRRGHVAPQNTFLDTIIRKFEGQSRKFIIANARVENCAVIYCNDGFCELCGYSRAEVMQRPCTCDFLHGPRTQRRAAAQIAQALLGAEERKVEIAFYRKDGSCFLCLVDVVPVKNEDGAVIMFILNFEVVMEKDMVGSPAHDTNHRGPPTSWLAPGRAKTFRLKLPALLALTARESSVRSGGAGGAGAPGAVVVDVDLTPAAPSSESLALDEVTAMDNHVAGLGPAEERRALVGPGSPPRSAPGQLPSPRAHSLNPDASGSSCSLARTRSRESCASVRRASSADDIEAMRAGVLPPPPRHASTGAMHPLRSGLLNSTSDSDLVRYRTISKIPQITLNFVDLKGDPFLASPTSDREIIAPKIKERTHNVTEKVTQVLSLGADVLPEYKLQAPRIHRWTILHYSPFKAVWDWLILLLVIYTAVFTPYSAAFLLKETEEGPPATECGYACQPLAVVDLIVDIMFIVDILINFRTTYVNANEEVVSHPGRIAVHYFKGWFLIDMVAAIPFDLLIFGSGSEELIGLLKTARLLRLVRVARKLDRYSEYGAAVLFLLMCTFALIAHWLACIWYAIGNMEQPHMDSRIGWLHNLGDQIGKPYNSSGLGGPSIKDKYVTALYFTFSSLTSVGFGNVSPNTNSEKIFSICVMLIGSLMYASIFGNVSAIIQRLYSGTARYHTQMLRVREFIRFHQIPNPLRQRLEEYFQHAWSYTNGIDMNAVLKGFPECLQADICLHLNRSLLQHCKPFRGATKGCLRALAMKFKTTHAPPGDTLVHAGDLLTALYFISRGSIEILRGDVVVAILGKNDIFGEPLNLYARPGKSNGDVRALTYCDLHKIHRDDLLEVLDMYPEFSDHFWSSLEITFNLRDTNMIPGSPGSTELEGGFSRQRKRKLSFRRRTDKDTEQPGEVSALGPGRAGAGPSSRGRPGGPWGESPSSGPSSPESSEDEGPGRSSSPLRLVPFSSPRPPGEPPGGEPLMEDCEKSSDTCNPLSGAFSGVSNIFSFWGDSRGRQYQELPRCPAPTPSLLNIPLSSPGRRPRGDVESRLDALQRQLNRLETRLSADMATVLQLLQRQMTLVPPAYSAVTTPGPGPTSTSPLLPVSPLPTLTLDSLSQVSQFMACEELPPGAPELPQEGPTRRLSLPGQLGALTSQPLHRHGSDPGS
Chain of Cytochrome P450 2D6 (P10635 whole entry): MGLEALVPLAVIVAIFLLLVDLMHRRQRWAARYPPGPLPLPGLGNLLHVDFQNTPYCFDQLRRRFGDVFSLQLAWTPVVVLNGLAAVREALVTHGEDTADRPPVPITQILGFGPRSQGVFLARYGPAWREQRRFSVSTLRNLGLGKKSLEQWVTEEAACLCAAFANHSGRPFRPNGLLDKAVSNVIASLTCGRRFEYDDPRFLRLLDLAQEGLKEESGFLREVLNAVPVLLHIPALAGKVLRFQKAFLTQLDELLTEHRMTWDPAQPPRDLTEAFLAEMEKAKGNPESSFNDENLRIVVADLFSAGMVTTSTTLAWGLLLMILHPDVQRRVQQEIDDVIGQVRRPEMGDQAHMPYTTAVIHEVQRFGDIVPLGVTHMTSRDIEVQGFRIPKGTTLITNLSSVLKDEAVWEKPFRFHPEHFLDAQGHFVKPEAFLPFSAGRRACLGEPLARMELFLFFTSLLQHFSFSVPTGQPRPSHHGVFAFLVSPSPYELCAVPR

bioavailability [1]: 105%
Vd [2]: 2.2 L/kg
Papp B→A at 2 h, 10 µM [3]: 17.2 ×10⁻⁶ cm/s
clearance [4]: 31.1 mL/min/kg
clearance [5]: 24.5 mL/min/kg
bioavailability [7]: 55%
half-life [8]: 0.433 h
AUC(0-t) [9]: 22100 ng·h/mL
Vd [10]: 4.4 L/kg
AUC(0-t) [11]: 3550 ng·h/mL
clearance [12]: 40.9 mL/min/kg
Tmax [15]: 0.5 h
AUC(0-t) [16]: 395 ng·h/mL
AUC(0-t) [17]: 6480 ng·h/mL
AUC(0-t) [18]: 28900 ng·h/mL
half-life [19]: 2.63 h
AUC(0-t) [20]: 13600 ng·h/mL
IC50 (Cytochrome P450 3A4 [21]): > 10 µM
half-life [23]: 43.5 h
IC50 (Cytochrome P450 2D6): > 10 µM
Tmax [25]: 3.3 h
half-life [26]: 8.7 h
bioavailability [27]: 65%
solubility at 2 h [29]: 254 µM (≈ 109 µg/mL)
Papp A→B at 2 h, 10 µM [30]: 3.7 ×10⁻⁶ cm/s
AUC(0-t) [31]: 666 ng·h/mL
Vd [33]: 2.2 L/kg
AUC(0-t) [34]: 538 ng·h/mL
Vd [36]: 2.8 L/kg
IC50 (Cytochrome P450 3A4 [37]): > 10 µM
IC50 (Cytochrome P450 1A2): > 10 µM
half-life [38]: 2.5 h
fraction unbound [39]: 0.449
SMILES: Cc1cc(S(=O)(=O)N[C@H](C)C2CCN(C)CC2)ccc1NC(=O)c1ccccc1C
Activity (MDA-MB-231 [6]): Dose-Dependent Effect
inhibition in vivo at 10 mg/kg (MDA-MB-231 [13]): 47.2%
IC50 [14]: > 150 µM
inhibition in vivo at 10 mg/kg (MDA-MB-231 [22]): 73.8%
MED [24]: 10 mg/kg
inhibition in vivo at 50 mg/kg (MDA-MB-231 [28]): 55.6%
inhibition in vivo at 10 mg/kg (MDA-MB-231 [32]): 28.3%
IC50 [35]: > 30 µM
